Values quoted from earlier work in patent US20100239681A1, “Controlled Release Particulates Containing Water-Insoluble Drug” (Biokey, Inc., priority 2009, published 2010).

Conditions: at 25° C.

- water solubility: < 30 µg/mL
SMILES: Oc1ccc(C=Cc2cc(O)cc(O)c2)cc1 [resveratrol]
